In US20080102497A1, “ENZYMATIC HYDROLYSIS OF STARCH” (priority 2006, published 2008):
Several values for one entry are separate records, joined by “and”; a condition that tells them apart may be missing. Equal values may be shown once. Read-outs that look alike come from different tables or passages of the source.

Columns and labels:
[1] = biological target: T1, α-amylase from bovine pancreas (Bos taurus, UniProt Q3MHH8); assay: hydrolysis of raw corn starch at pH 5.3 or 7.0, reducing sugar by DNSA; type: biochemical; conditions: for Relative Activity: 37° C., 20 min
T1 construct: The α-amylase from bovine pancreas; from tissue; host or cells: bovine pancreas
T1 sequence (Q3MHH8 16-511): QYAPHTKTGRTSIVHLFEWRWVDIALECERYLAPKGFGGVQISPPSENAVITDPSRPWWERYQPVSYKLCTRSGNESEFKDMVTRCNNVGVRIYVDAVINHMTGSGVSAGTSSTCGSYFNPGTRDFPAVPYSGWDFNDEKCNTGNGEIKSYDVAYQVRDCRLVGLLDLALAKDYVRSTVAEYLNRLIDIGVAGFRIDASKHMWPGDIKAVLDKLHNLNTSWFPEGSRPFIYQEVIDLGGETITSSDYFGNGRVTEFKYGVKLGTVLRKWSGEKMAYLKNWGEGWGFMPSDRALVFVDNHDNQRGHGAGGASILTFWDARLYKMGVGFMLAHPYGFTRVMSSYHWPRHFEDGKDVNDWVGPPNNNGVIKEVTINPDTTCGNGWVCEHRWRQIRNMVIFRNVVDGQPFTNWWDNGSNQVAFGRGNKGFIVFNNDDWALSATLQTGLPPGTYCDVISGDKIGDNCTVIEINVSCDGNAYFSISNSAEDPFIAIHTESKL
Protocol: Thereafter, 40 μl of each pre-incubation solution was added to 15 mg raw corn starch, and the reaction mixture incubated at 37° C. for 20 minutes. The control reaction mixture contained substrate, enzyme, and buffer but no manganese ion. The starch hydrolysis reaction was stopped by combining the reaction mixture with a solution containing DNSA and heating for 30 min at 85° C. The absorbance of the control and test samples was measured at 562 nm to monitor the amount of reducing sugar in each sample.

[2] = biological target: T2, glucoamylase from Aspergillus Niger (Aspergillus niger, UniProt P69328); conditions: for Relative Activity: washed 5 times before enzyme, pH 5.3, 37° C., 20 min
T2 sequence (P69328 25-640): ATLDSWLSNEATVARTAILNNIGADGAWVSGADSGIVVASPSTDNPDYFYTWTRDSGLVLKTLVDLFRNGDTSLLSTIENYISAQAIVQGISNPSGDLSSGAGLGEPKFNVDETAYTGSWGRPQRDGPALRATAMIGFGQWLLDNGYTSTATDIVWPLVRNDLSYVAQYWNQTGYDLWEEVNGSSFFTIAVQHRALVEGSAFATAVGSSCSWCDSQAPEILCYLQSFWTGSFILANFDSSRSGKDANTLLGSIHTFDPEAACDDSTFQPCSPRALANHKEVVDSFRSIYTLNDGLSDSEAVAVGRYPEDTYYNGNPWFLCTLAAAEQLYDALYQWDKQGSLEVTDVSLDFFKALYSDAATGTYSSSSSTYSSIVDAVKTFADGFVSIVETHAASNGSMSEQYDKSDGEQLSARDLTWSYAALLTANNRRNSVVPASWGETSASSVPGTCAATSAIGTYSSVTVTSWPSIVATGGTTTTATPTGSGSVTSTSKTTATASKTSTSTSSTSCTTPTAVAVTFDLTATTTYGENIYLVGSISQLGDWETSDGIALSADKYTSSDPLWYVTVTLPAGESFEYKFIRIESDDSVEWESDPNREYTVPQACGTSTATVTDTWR
Protocol: Thereafter 40 μl of the buffer and metal solution was added to 15 mg raw corn starch and the resulting mixture was pre-incubated at 20° C. for 20 minutes. The starch mixture was washed 5 times with excess buffer, followed by centrifugation, and removal of the supernatant. Then an enzyme solution containing buffer and the glucoamylase from Aspergillus niger was added to the washed starch and the reaction mixture incubated at 37° C. for 20 minutes. The control reaction mixture contained substrate, enzyme, and buffer but no manganese ion. The starch hydrolysis reaction was stopped by combining the reaction mixture with a solution containing DNSA and heating for 30 min at 85° C. The absorbance of the control and test samples was measured at 562 nm to monitor the amount of reducing sugar in each sample.

[3] = system: glucoamylase from Rhizopus sp.; assay: temperature effect on conversion of raw corn starch; type: biochemical; conditions: 1 mM Mn^++; for % Conversion: 10 min, raw corn starch, pH 5.3
Protocol: An enzyme solution of the glucoamylase from Rhizopus sp. […] Thereafter, 50 μl of the enzyme solution was added to each of four samples containing 15 mg raw corn starch and incubated at 22° C., 32° C., 40° C. or 50° C., respectively, for 10 minutes.

β-amylase from barley [4] = biological target: T3, β-amylase from barley (Hordeum vulgare, UniProt P16098); assay: hydrolysis of cooked corn starch varieties; type: biochemical; conditions: pH 5.2, 37° C., 10 min
T3 sequence (P16098 whole entry): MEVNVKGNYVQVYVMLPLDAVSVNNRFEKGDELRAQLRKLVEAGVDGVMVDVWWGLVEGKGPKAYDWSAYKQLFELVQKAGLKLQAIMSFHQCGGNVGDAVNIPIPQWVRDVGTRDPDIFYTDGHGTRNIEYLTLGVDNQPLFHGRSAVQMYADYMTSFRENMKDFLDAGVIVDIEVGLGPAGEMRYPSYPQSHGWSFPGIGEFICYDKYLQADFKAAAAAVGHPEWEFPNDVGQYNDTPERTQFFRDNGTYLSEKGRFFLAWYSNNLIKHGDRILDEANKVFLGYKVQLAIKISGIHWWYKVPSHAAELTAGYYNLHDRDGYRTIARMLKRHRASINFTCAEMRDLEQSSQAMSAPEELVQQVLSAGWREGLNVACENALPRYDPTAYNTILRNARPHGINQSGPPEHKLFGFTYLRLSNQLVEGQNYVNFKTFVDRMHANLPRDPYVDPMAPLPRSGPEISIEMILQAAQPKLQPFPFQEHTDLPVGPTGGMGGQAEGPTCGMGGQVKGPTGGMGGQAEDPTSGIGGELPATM
Protocol: (§1) The separate reaction mixtures were incubated at 37° C. for 10 minutes. The control reaction mixture contained enzyme, buffer, and starch but no manganese ion. The starch hydrolysis reaction was stopped by combining the reaction mixture with a solution containing DNSA and heating for 30 min at 85° C. The absorbance of the control and test samples was measured at 562 nm to monitor the amount of reducing sugar in each sample.

[5] = biological target: T2, glucoamylase from Aspergillus Niger; conditions: pH 5.2, 37° C., 10 min
Protocol: as §1

[6] = system: α-amylase from Bacillus subtilis; assay: hydrolysis of cooked dent corn starch; type: biochemical; conditions: 0.01 mM Mn^++; cooked dent corn starch 0.5%; pH 5.2; 37° C., 10 min
Protocol: (§2) The separate reaction mixtures were incubated at 37° C. for 10 minutes. The control reaction mixtures contained enzyme, buffer, and starch but no manganese ion. The starch hydrolysis reaction was stopped by combining the reaction mixture with a solution containing DNSA and heating for 30 min at 85° C. The absorbance of the control and test samples was measured at 562 nm to monitor the amount of reducing sugar in each sample.

[7] = biological target: T4, industrial α-amylase known as Termamyl (Bacillus licheniformis, UniProt P06278); assay: hydrolysis of cooked dent corn starch; type: biochemical; conditions: cooked dent corn starch 0.5%, pH 5.2, 37° C., 10 min
T4 construct: purchased Novozymes
T4 sequence (P06278 30-512): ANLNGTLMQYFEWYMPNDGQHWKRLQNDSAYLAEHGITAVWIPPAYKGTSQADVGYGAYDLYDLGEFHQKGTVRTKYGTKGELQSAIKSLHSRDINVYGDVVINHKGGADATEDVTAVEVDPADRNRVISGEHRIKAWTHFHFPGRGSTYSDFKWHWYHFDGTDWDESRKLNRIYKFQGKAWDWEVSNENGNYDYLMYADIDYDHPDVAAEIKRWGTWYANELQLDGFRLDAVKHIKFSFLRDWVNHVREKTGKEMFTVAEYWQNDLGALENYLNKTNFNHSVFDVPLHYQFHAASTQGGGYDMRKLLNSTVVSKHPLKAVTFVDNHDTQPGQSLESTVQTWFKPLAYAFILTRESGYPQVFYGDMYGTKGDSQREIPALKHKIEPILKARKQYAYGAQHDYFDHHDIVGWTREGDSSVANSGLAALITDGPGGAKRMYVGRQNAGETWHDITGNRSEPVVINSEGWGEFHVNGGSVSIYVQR
Protocol: as §2

β-amylase from barley [8] = biological target: T3, β-amylase from barley; assay: pH effect on hydrolysis of cooked dent corn starch; type: biochemical; conditions: 1 mM Mn^++; for Relative Activity: cooked dent corn starch 0.5%, 37° C., 10 min, control at pH 5 = 100
Protocol: as §1, with “were then” for “were”

[9] = system: enzyme mixture of purified glucoamylase from mushroom and purified α-amylase from barley; assay: hydrolysis of raw corn starch by enzyme mixture, reducing sugar by DNSA; type: biochemical; conditions: pH 5.3, 37° C., 20 min
[10] = 0.01 mM Mn^++, cooked dent corn starch 0.5%
[11] = 0.01 mM Mn^++, cooked high-amylose V corn starch 0.5%
[12] = 0.01 mM Mn^++, cooked soluble corn starch 0.5%
[13] = 0.01 mM Mn^++, cooked waxy corn starch 0.5%
[14] = 0.1 mM Mn^++, cooked dent corn starch 0.5%
[15] = 0.1 mM Mn^++, cooked high-amylose V corn starch 0.5%
[16] = 0.1 mM Mn^++, cooked soluble corn starch 0.5%
[17] = 0.1 mM Mn^++, cooked waxy corn starch 0.5%
[18] = 1 mM Mn^++, cooked dent corn starch 0.5%
[19] = 1 mM Mn^++, cooked high-amylose V corn starch 0.5%
[20] = 1 mM Mn^++, cooked soluble corn starch 0.5%
[21] = 1 mM Mn^++, cooked waxy corn starch 0.5%
[22] = 10 mM Mn^++, cooked dent corn starch 0.5%
[23] = 10 mM Mn^++, cooked high-amylose V corn starch 0.5%
[24] = 10 mM Mn^++, cooked soluble corn starch 0.5%
[25] = 10 mM Mn^++, cooked waxy corn starch 0.5%

[Mn+2] [Mn^++, manganese ions]
Relative Activity ([1]; 0.01 mM Mn^++, pH 5.3 sodium acetate buffer): 108.3%
Relative Activity ([1]; 0.01 mM Mn^++, pH 7.0 potassium phosphate buffer): 103.5%
Relative Activity ([1]; 0.1 mM Mn^++, pH 5.3 sodium acetate buffer): 125.0%
Relative Activity ([1]; 0.1 mM Mn^++, pH 7.0 potassium phosphate buffer): 103.5%
Relative Activity ([1]; 1 mM Mn^++, pH 5.3 sodium acetate buffer): 145.2%
Relative Activity ([1]; 1 mM Mn^++, pH 7.0 potassium phosphate buffer): 119.6%
Relative Activity ([1]; 10 mM Mn^++, pH 5.3 sodium acetate buffer): 139.9%
Relative Activity ([1]; 10 mM Mn^++, pH 7.0 potassium phosphate buffer): 95.7%
pH dependence of Mn^++ activation (in words) ([1]; pH 5.3 vs 7.0): greater activation at a pH of 5.3 than at 7.0
Relative Activity ([2]; raw corn starch pre-incubated with 0.01 mM Mn^++): 89.1%
Relative Activity ([2]; raw corn starch pre-incubated with 0.1 mM Mn^++): 84.2%
Relative Activity ([2]; raw corn starch pre-incubated with 1 mM Mn^++): 95.0%
Relative Activity ([2]; raw corn starch pre-incubated with 10 mM Mn^++): 89.1%
cause of Mn^++-induced enhancement (in words) ([2]; starch pre-incubated with Mn^++ and washed): not caused by the action of Mn^++ on the starch
temperature dependence of Mn^++ activation (in words) ([3]; 22-50° C.): occurs at a wide temperature range
% Conversion ([3]; 22° C.): 0.026%
% Conversion ([3]; 32° C.): 0.064%
% Conversion ([3]; 40° C.): 0.152%
% Conversion ([3]; 50° C.): 0.274%
Relative Activity (β-amylase from barley [4]; [10]): 123.5%
Relative Activity (β-amylase from barley [4]; [11]): 111.2%
Relative Activity (β-amylase from barley [4]; [12]): 138.7%
Relative Activity (β-amylase from barley [4]; [13]): 114.2%
Relative Activity (β-amylase from barley [4]; [14]): 135.3%
Relative Activity (β-amylase from barley [4]; [15]): 123.3%
Relative Activity (β-amylase from barley [4]; [16]): 135.7%
Relative Activity (β-amylase from barley [4]; [17]): 129.9%
Relative Activity (β-amylase from barley [4]; [18]): 149.8%
Relative Activity (β-amylase from barley [4]; [19]): 136.3%
Relative Activity (β-amylase from barley [4]; [20]): 174.8%
Relative Activity (β-amylase from barley [4]; [21]): 148.3%
Relative Activity (β-amylase from barley [4]; [22]): 210.1%
Relative Activity (β-amylase from barley [4]; [23]): 184.5%
Relative Activity (β-amylase from barley [4]; [24]): 199.6%
Relative Activity (β-amylase from barley [4]; [25]): 237.4%
Relative Activity [5, 10]: 113.3%
Relative Activity [5, 11]: 119.2%
Relative Activity [5, 12]: 119.1%
Relative Activity [5, 13]: 113.0%
Relative Activity [5, 14]: 126.1%
Relative Activity [5, 15]: 130.9%
Relative Activity [5, 16]: 129.1%
Relative Activity [5, 17]: 130.1%
Relative Activity [5, 18]: 148.4%
Relative Activity [5, 19]: 141.3%
Relative Activity [5, 20]: 144.8%
Relative Activity [5, 21]: 147.2%
Relative Activity [5, 22]: 186.9%
Relative Activity [5, 23]: 193.1%
Relative Activity [5, 24]: 178.3%
Relative Activity [5, 25]: 200.3%
Relative Activity [6]: 113.0% and 119.5%
Relative Activity ([7]; 0.01 mM Mn^++): 114.7%
Relative Activity ([7]; 10 mM Mn^++): 156.3%
pH range of greatest Mn^++ induced enhancement (β-amylase from barley [8]; cooked dent corn starch, pH 3-8 tested): 5.0-6.0
Relative Activity (β-amylase from barley [8]; pH 3): 0%
Relative Activity (β-amylase from barley [8]; pH 4): 105.8%
Relative Activity (β-amylase from barley [8]; pH 5): 173.1%
Relative Activity (β-amylase from barley [8]; pH 6): 176.9%
Relative Activity (β-amylase from barley [8]; pH 7): 165.4%
Relative Activity (β-amylase from barley [8]; pH 8): 74%
Relative Activity ([9]; 0.01 mM Mn^++): 106.7%
Relative Activity ([9]; 0.1 mM Mn^++): 124.7%
Relative Activity ([9]; 1 mM Mn^++): 142.6%
Relative Activity ([9]; 10 mM Mn^++): 143.5%
